How the values were obtained:
Alternaria solani = assay: In vivo protective test on Alternaria solani (leaf spot of tomato); details: 168 h, 500 ppm of active ingredient, evaluated 7 days after inoculation, read-out: efficacy
physchem = details: reversed-phase HPLC column (C 18)
[1] = test system: Puccinia recondita f. Sp. tritici; assay: In vivo preventive test on Puccinia recondita f. Sp. tritici (wheat brown rust); details: topical, 240 h, 1000 ppm of active ingredient, evaluated 10 days after inoculation, read-out: efficacy
[2] = test system: Erysiphe graminis f. sp. hordei; assay: In vivo preventive test on Erysiphe gramini (powdery mildew on barley); details: Blumeria graminis, 168 h, 1000 ppm of active ingredient, evaluated 7 days after inoculation, read-out: efficacy
Podosphaera leucotricha = assay: In vivo protective test on Podosphaera leucotricha (apples); details: topical, 240 h, 100 ppm of active ingredient, evaluated 10 days after inoculation, read-out: efficacy
Sphaerotheca fuliginea = assay: In vivo protective test on Sphaerotheca fuliginea (cucumbers); details: Podosphaera fuliginea, 168 h, 100 ppm of active ingredient, evaluated 7 days after inoculation, read-out: efficacy

| chromatographic logP (physchem) | Structure (SMILES) | pest or weed control at 1000 ppm [1] | also measured |
| --- | --- | --- | --- |
| 1.5 | CCN(C)/C=N/c1cc(C)c(Oc2nc(C)c(C(C)=O)s2)cc1C [Compound 1.27] |  | pest or weed control at 500 ppm (Alternaria solani): ≥ 70% |
| 1.87 | CCN(C)/C=N/c1cc(C)c(Oc2nc(C)c(C)s2)cc1C [Compound 1.38] |  |  |
| 2.18 | CCN(C)/C=N/c1cc(C)c(Oc2nc(-c3ccccc3)cs2)cc1C [Compound 1.60] |  |  |
| 1.67 | Cc1cc(Oc2nc(Cl)ns2)c(C)cc1/N=C/N(C)C(C)C [Compound 2.6] |  |  |
|  | CCN(C)/C=N/c1cc(C)c(O)cc1C [IX-a, N-ethyl-N′-(4-hydroxy-2,5-dimethylphenyl)-N-methylimidoformamide] |  | chromatographic logP (physchem; pH 2.3): 0.41 |
|  | Cc1cc(Oc2nc(Cl)c(Cl)s2)c(C)cc1N [II-1, 4-[(4,5-dichloro-1,3-thiazol-2-yl)oxy]-2,5-dimethylaniline] |  | chromatographic logP (physchem; pH 2.3): 3.4 |
| 2.09 | Cc1cc(Oc2nc(Cl)c(Cl)s2)ccc1/N=C/N(C)C(C)C [Compound 1.28] | ≥ 70% | pest or weed control at 1000 ppm [2]: ≥ 70% |
| 2.22 | CCCc1sc(Oc2cc(C)c(/N=C/N(C)CC)cc2C)nc1C [Compound 1.36] |  |  |
| 1.66 | Cc1cc(Oc2nc(C)c(C)s2)ccc1/N=C/N(C)C(C)C [Compound 1.34] |  |  |
| 1.78 | CCN(C)/C=N/c1cc(C)c(Oc2nnc(C(F)(F)F)s2)cc1C [Compound 3.2] | ≥ 70% | pest or weed control at 500 ppm (Alternaria solani): ≥ 70%; pest or weed control at 1000 ppm [2]: ≥ 70% |
| 1.8 | CCN(C)/C=N/c1cc(C)c(Oc2nc(Cl)c(C)s2)cc1C [Compound 1.17] | ≥ 70% | pest or weed control at 500 ppm (Alternaria solani): ≥ 70%; pest or weed control at 1000 ppm [2]: ≥ 70%; pest or weed control at 100 ppm (Podosphaera leucotricha): ≥ 70% |
| 1.68 | CCN(C)/C=N/c1cc(C)c(Oc2nc(Cl)c(C=O)s2)cc1C [Compound 1.62] |  |  |
| 1.6 | CCN(C)/C=N/c1cc(C)c(Oc2nc(Cl)cs2)cc1C [Compound 1.18] | ≥ 70% | pest or weed control at 1000 ppm [2]: ≥ 70%; pest or weed control at 100 ppm (Podosphaera leucotricha): ≥ 70%; pest or weed control at 100 ppm (Sphaerotheca fuliginea): ≥ 70% |
| 2.18 | CCN(C)/C=N/c1cc(C)c(Oc2ncc(C(C)(C)C)s2)cc1C [Compound 1.74] | ≥ 70% | pest or weed control at 500 ppm (Alternaria solani): ≥ 70%; pest or weed control at 100 ppm (Podosphaera leucotricha): ≥ 70% |
| 1.93 | CCN(C)/C=N/c1cc(C)c(Oc2nnc(-c3ccccc3)s2)cc1C [Compound 3.3] |  |  |
| 1.7 | Cc1cc(Oc2nc(Cl)cs2)c(C)cc1/N=C/N(C)C(C)C [Compound 1.14] |  | pest or weed control at 500 ppm (Alternaria solani): ≥ 70% |
| 1.69 | Cc1cc(Oc2nnc(C(C)C)s2)c(C)cc1/N=C/N(C)C(C)C [Compound 3.19] |  |  |
| 1.57 | CCN(C)/C=N/c1ccc(Oc2nc(C(C)C)ns2)cc1C [Compound 2.2] | ≥ 70% | pest or weed control at 1000 ppm [2]: ≥ 70% |
| 2.25 | Cc1cc(Oc2nc(-c3ccccc3)cs2)c(C)cc1/N=C/N(C)C(C)C [Compound 1.61] |  |  |
| 1.69 | Cc1cc(Oc2nc(Cl)c(C)s2)c(C)cc1/N=C/N(C)C [Compound 1.31] |  |  |
| 1.99 | CCN(C)/C=N/c1ccc(Oc2nc(Cl)c(Cl)s2)cc1C [Compound 1.39] |  |  |

| chromatographic logP (physchem) | Structure (SMILES) | pest or weed control at 1000 ppm [1] | also measured |
| --- | --- | --- | --- |
| 1.98 | Cc1cc(Oc2nc(C)c(C)s2)c(C)cc1/N=C/N(C)C(C)C [Compound 1.37] |  |  |
| 1.89 | Cc1cc(Oc2nc(C(C)C)ns2)c(C)cc1/N=C/N(C)C(C)C [Compound 2.4] | ≥ 70% | pest or weed control at 1000 ppm [2]: ≥ 70% |
| 2 | Cc1cc(Oc2nnc(-c3ccccc3)s2)c(C)cc1/N=C/N(C)C(C)C [Compound 3.6] |  |  |
| 2.14 | Cc1cc(Oc2nc(C)c(Cl)s2)c(C)cc1/N=C/N(C)C(C)C [Compound 1.13] | ≥ 70% | pest or weed control at 500 ppm (Alternaria solani): ≥ 70%; pest or weed control at 1000 ppm [2]: ≥ 70% |
| 2.26 | CCN(C)/C=N/c1cc(C)c(Oc2nc(C(C)(C)C)cs2)cc1C [Compound 1.75] | ≥ 70% | pest or weed control at 100 ppm (Podosphaera leucotricha): ≥ 70% |
| 2.29 | CCCc1sc(Oc2cc(C)c(/N=C/N(C)C(C)C)cc2C)nc1C [Compound 1.35] |  |  |
| 2 | CCN(C)/C=N/c1cc(C)c(Oc2nc(Cl)c(Br)s2)cc1C [Compound 1.6] | ≥ 70% | pest or weed control at 1000 ppm [2]: ≥ 70%; pest or weed control at 100 ppm (Podosphaera leucotricha): ≥ 70%; pest or weed control at 100 ppm (Sphaerotheca fuliginea): ≥ 70% |
| 1.77 | Cc1cc(Oc2nc(C(C)C)ns2)ccc1/N=C/N(C)C(C)C [Compound 2.1] |  |  |
| 1.65 | CCN(C)/C=N/c1ccc(Oc2nc(C)c(C)s2)cc1C [Compound 1.33] |  |  |
| 1.74 | CCN(C)/C=N/c1cc(C)c(Oc2nc(C#N)c(Cl)s2)cc1C [Compound 1.72] | ≥ 70% | pest or weed control at 100 ppm (Podosphaera leucotricha): ≥ 70% |
| 2.04 | CCN(C)/C=N/c1ccc(Oc2nc(C(C)(C)C)ns2)cc1C [Compound 2.7] | ≥ 70% | pest or weed control at 500 ppm (Alternaria solani): ≥ 70%; pest or weed control at 100 ppm (Podosphaera leucotricha): ≥ 70% |
| 2.87 | CCN(C)/C=N/c1cc(C)c(Oc2nc(Cl)c(C(C)(C)C)s2)cc1C [Compound 1.73] | ≥ 70% |  |
| 1.82 | CSc1nnc(Oc2cc(C)c(/N=C/N(C)C(C)C)cc2C)s1 [Compound 3.18] |  |  |
| 1.56 | CCN(C)/C=N/c1cc(C)c(Oc2nc(Cl)ns2)cc1C [Compound 2.5] |  |  |
| 1.84 | Cc1cc(Oc2nnc(C(F)(F)F)s2)c(C)cc1/N=C/N(C)C(C)C [Compound 3.1] | ≥ 70% | pest or weed control at 1000 ppm [2]: ≥ 70% |
| 1.61 | CCN(C)/C=N/c1cc(C)c(Oc2nnc(C(C)C)s2)cc1C [Compound 3.22] |  |  |
| 2.79 | Cc1cc(Oc2nc(C(C)(C)C)c(Cl)s2)c(C)cc1/N=C/N(C)C(C)C [Compound 1.64] |  | pest or weed control at 500 ppm (Alternaria solani): ≥ 70% |
| 2.78 | CCN(C)/C=N/c1cc(C)c(Oc2nc(C(C)(C)C)c(Br)s2)cc1C [Compound 1.71] | ≥ 70% | pest or weed control at 500 ppm (Alternaria solani): ≥ 70%; pest or weed control at 100 ppm (Podosphaera leucotricha): ≥ 70% |
| 2.52 | CCN(C)/C=N/c1cc(C)c(Oc2nc(C(C)C)c(Cl)s2)cc1C [Compound 1.20] | ≥ 70% | pest or weed control at 500 ppm (Alternaria solani): ≥ 70%; pest or weed control at 1000 ppm [2]: ≥ 70% |
| 1.69 | CCN(C)/C=N/c1cc(C)c(Oc2nnc(SC)s2)cc1C [Compound 3.21] |  | pest or weed control at 500 ppm (Alternaria solani): ≥ 70% |
| 1.46 | CCN(C)/C=N/c1cc(C)c(Oc2nc(C=O)c(Cl)s2)cc1C [Compound 1.42, N′-{4-[(5-chloro-4-formyl-1,3-thiazol-2-yl)oxy]-2,5-dimethylphenyl}-N-ethyl-N-methylimidoformamide] |  | chromatographic logP (physchem; pH 2.3): 1.51 |

| Structure (SMILES) | chromatographic logP (physchem) | pest or weed control at 1000 ppm [1] | also measured |
| --- | --- | --- | --- |
| CCN(C)C=Nc1cc(C)c(Oc2nc(C=NOC(C)(C)C)c(Cl)s2)cc1C [Compound 1.44, N′-[4-({4-[(tert-butoxyimino)methyl]-5-chloro-1,3-thiazol-2-yl}oxy)-2,5-dimethylphenyl]-N-ethyl-N-methylimidoformamide] | 2.65 |  | chromatographic logP (physchem; pH 2.3): 2.65 |

— US8933107B2, “Pesticide thiazolyloxy substituted phenylamidine derivatives” (Bayer Cropscience AG, priority 2005, dated 2015)
